Reference: PubChem BioAssay (NCI)
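96-well plates; 48 h exposure; 5 concentrations. Endpoints by linear interpolation between flanking doses. Not reached: highest tested concentration assigned. Abbreviation: GI50, concentration required for 50% inhibition of growth. TGI is the concentration that stops growth completely.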

What was measured:
Assay in all cases: NCI-60 cell line screen, 48 h
[1] = tested on: A549 NSCLC
[2] = tested on: M14 melanoma
[3] = tested on: NCI-H23 lung
[4] = tested on: NCI-H522 lung
[5] = tested on: SF-268 CNS
[6] = tested on: SN12C renal
[7] = tested on: SNB-75 CNS
[8] = tested on: EKVX NSCLC
[9] = tested on: BT-549 breast
[10] = tested on: NCI/ADR-RES ovarian

`O=C1C=CC(=O)c2nc3c(cc21)CCC3` showed a TGI [1] greater than 100 µM, a TGI [2] of 31 µM and a TGI [3] of 64.6 µM. For the same compound, the TGI [4] was 25.4 µM, the TGI [5] was 37.3 µM and the TGI [6] was 40.3 µM. For the same compound, the TGI [7] was greater than 100 µM.
`c1ccc(NCn2cnc3ccccc32)cc1` showed a TGI [1] greater than 100 µM, a TGI [8] greater than 100 µM and a TGI [3] greater than 100 µM. The TGI [4] was greater than 100 µM, the TGI [5] was greater than 100 µM and the TGI [6] was greater than 100 µM. For the same compound, the TGI [7] was greater than 100 µM.
For `CCN(Cc1ccc(F)cc1)c1cc(Cl)c(CO)c(Cl)c1`, the GI50 [1] was 12.3 µM, the TGI [1] was 29.1 µM and the GI50 [9] was 13.6 µM. The TGI [9] was 28.3 µM, the GI50 [2] was 17 µM and the TGI [2] was 35 µM. It also gave a GI50 [3] of 13 µM, a TGI [3] of 28.8 µM and a GI50 [4] of 10.8 µM. It also gave a TGI [4] of 25.7 µM, a GI50 [10] of 13.7 µM and a TGI [10] of 31.4 µM. It also gave a GI50 [5] of 13.6 µM, a TGI [5] of 27.7 µM and a GI50 [6] of 13.3 µM. The TGI [6] was 26.8 µM, the GI50 [7] was 12.8 µM and the TGI [7] was 25.9 µM.
With `CCOC(=O)C1=C(C(=O)OCC)C2c3ccccc3C=CN2C(C(=O)OCC)=C(SC)S1` (configuration not stated) the TGI [1] was greater than 100 µM, the TGI [8] was greater than 100 µM and the TGI [2] was greater than 100 µM. For the same compound, the TGI [3] was greater than 100 µM, the TGI [4] was greater than 100 µM and the TGI [5] was greater than 100 µM. It also gave a TGI [6] greater than 100 µM and a TGI [7] greater than 100 µM.
For `CN(C)CCn1c2c3ccccc3ccc2c2oc(=O)c3ccccc3c21`, the TGI [1] was 15.3 µM, the TGI [8] was 36.4 µM and the TGI [2] was 19.1 µM. The TGI [3] was 18.9 µM, the TGI [4] was 27.6 µM and the TGI [5] was 7.86 µM. The TGI [7] was 9.94 µM.
`O=C(Oc1ccc(Cl)cc1)c1ccccc1Nc1ccnc(C(F)(F)F)c1` showed a GI50 [1] of 15.3 µM, a TGI [1] of 52.3 µM and a GI50 [9] of 14.9 µM. The TGI [9] was 41.2 µM, the GI50 [8] was 25.2 µM and the TGI [8] was 64 µM. For the same compound, the GI50 [2] was 2.12 µM, the TGI [2] was 4.53 µM and the GI50 [3] was 2.82 µM. It also gave a TGI [3] of 8.55 µM, a GI50 [4] of 4.22 µM and a TGI [4] of 52.2 µM. The GI50 [10] was 16.2 µM, the TGI [10] was 49.5 µM and the GI50 [5] was 4.32 µM. The TGI [5] was 17.4 µM, the GI50 [6] was 2.95 µM and the TGI [6] was 8.72 µM.
With `COc1ccc(OC)c(N2CC(N)C2=O)c1` (configuration not stated) the TGI [1] was greater than 100 µM, the TGI [8] was greater than 100 µM and the TGI [2] was greater than 100 µM. The TGI [3] was greater than 100 µM, the TGI [4] was greater than 100 µM and the TGI [5] was greater than 100 µM. It also gave a TGI [6] greater than 100 µM and a TGI [7] greater than 100 µM.
Compound `Cc1cc2c(C)[nH]nc2c(C(=O)O)c1C` has a TGI [1] greater than 100 µM, a TGI [8] greater than 100 µM and a TGI [3] greater than 100 µM. For the same compound, the TGI [6] was greater than 100 µM and the TGI [7] was greater than 100 µM.
Work on `COc1cc(-c2ccc3cc(OC)c(OC)c(OC)c3c2)cc(OC)c1OC` yielded a GI50 [1] of 7.66 µM, a TGI [1] greater than 100 µM and a GI50 [9] of 30.1 µM. For the same compound, the TGI [9] was greater than 100 µM, the GI50 [2] was 9.52 µM and the TGI [2] was greater than 100 µM. It also gave a GI50 [3] greater than 100 µM, a TGI [3] greater than 100 µM and a GI50 [4] of 9.54 µM. For the same compound, the TGI [4] was greater than 100 µM, the GI50 [10] was 7.91 µM and the TGI [10] was greater than 100 µM. It also gave a GI50 [5] of 24 µM, a TGI [5] greater than 100 µM and a GI50 [6] greater than 100 µM. It also gave a TGI [6] greater than 100 µM.
In the case of `O=S(=O)(N/N=C/c1cccc(/C=N/NS(=O)(=O)c2ccccc2)c1)c1ccccc1`, the TGI [1] is reported as greater than 100 µM, the TGI [8] is reported as greater than 100 µM and the TGI [2] is reported as greater than 100 µM. The TGI [3] was greater than 100 µM, the TGI [5] was greater than 100 µM and the TGI [6] was greater than 100 µM. It also gave a TGI [7] greater than 100 µM.
`COc1cccc(C(=O)NC(c2ccc(C)cc2)c2cc(Cl)c3cccnc3c2O)c1` (configuration not stated) showed a GI50 [1] of 0.473 µM, a TGI [1] of 11.2 µM and a GI50 [9] of 1.32 µM. The TGI [9] was 18.6 µM, the GI50 [2] was 0.677 µM and the TGI [2] was 10.8 µM. For the same compound, the GI50 [3] was 0.552 µM, the TGI [3] was 22.2 µM and the GI50 [4] was 0.291 µM. For the same compound, the TGI [4] was 1.65 µM, the GI50 [10] was 0.33 µM and the TGI [10] was greater than 88.6 µM. The GI50 [5] was 0.619 µM, the TGI [5] was 12.4 µM and the GI50 [6] was 0.661 µM. The TGI [6] was 13.2 µM, the GI50 [7] was 0.326 µM and the TGI [7] was 11.9 µM.
Work on `O=c1c(-c2ccccc2)c2oc(c1-c1ccccc1)CSCc1cccc(c1)CSC2` yielded a TGI [1] greater than 100 µM, a TGI [8] greater than 100 µM and a TGI [2] greater than 100 µM. For the same compound, the TGI [3] was greater than 100 µM, the TGI [4] was greater than 100 µM and the TGI [5] was 85.2 µM. It also gave a TGI [6] greater than 100 µM and a TGI [7] of 69.1 µM.
For `CC(=O)O/N=C(/C)c1ccccc1O`, the TGI [1] was greater than 100 µM, the TGI [8] was greater than 100 µM and the TGI [2] was greater than 100 µM. For the same compound, the TGI [3] was greater than 100 µM, the TGI [4] was greater than 100 µM and the TGI [5] was greater than 100 µM. The TGI [6] was greater than 100 µM and the TGI [7] was greater than 100 µM.
In the case of `CC(=O)NNc1nc(C)c(C(=O)/C=C/c2ccc(NC(C)=O)cc2)s1`, the TGI [1] is reported as greater than 100 µM, the TGI [8] is reported as greater than 100 µM and the TGI [3] is reported as greater than 100 µM. The TGI [4] was greater than 100 µM, the TGI [5] was greater than 100 µM and the TGI [6] was greater than 100 µM. The TGI [7] was greater than 100 µM.
Work on `CC(C)=CCC(O)C1=CC(=O)c2c(O)ccc(O)c2C1=O` (configuration not stated) yielded a TGI [1] of 17.7 µM, a TGI [9] of 3.17 µM and a TGI [8] of 3.02 µM. For the same compound, the TGI [2] was 2.52 µM, the TGI [3] was 2.66 µM and the TGI [4] was 0.694 µM. It also gave a TGI [5] of 6.09 µM, a TGI [6] of 1.45 µM and a TGI [7] of 11.1 µM.
`C/C(CCn1[nH]c(=O)ccc1=O)=N\NC(=O)C(=O)NN` gave a TGI [1] greater than 100 µM, a TGI [8] greater than 100 µM and a TGI [2] greater than 100 µM. For the same compound, the TGI [3] was greater than 100 µM, the TGI [4] was greater than 100 µM and the TGI [5] was greater than 100 µM. The TGI [6] was greater than 100 µM.
For `C[C@]12CCC3c4ccc(O)cc4CCC3C1CC[C@@]2(O)CNC(=O)/C=C/c1ccc(O)c(O)c1` (some centres not stated), the GI50 [1] was 2.63 µM, the TGI [1] was 9.68 µM and the GI50 [9] was 3.03 µM. The TGI [9] was 15.3 µM, the GI50 [8] was 9.97 µM and the TGI [8] was 29.8 µM. The GI50 [2] was 10.1 µM, the TGI [2] was 22.5 µM and the GI50 [4] was 2.51 µM. It also gave a TGI [4] of 5.91 µM, a GI50 [10] of 23.9 µM and a TGI [10] greater than 100 µM. For the same compound, the GI50 [5] was 9.45 µM, the TGI [5] was greater than 100 µM and the GI50 [6] was 7.54 µM. For the same compound, the TGI [6] was 20.6 µM, the GI50 [7] was 13.2 µM and the TGI [7] was 29 µM.
`CC(=O)OCCOCNC(=S)N/N=C(\C)c1cnccn1` showed a TGI [1] greater than 100 µM, a TGI [8] greater than 100 µM and a TGI [2] of 54.7 µM. For the same compound, the TGI [3] was greater than 100 µM, the TGI [4] was 97 µM and the TGI [5] was greater than 100 µM. It also gave a TGI [6] greater than 100 µM and a TGI [7] greater than 100 µM.
`Cc1ccc(/C=C/C(=O)c2cccc3ccccc23)cc1` was tested, and the TGI [1] was 43.2 µM, the TGI [8] was 34 µM and the TGI [2] was 39.5 µM. The TGI [4] was 34.2 µM, the TGI [5] was 33.1 µM and the TGI [6] was 27.4 µM. It also gave a TGI [7] of 34.6 µM.
Compound `Cc1csc(-c2nnc(Nc3ccc(Oc4ncccc4-c4ccnc(N)n4)cc3)c3ccccc23)c1` has a GI50 [1] of 1.95 µM, a TGI [1] greater than 100 µM and a GI50 [9] greater than 100 µM. The TGI [9] was greater than 100 µM, the GI50 [8] was greater than 100 µM and the TGI [8] was greater than 100 µM. For the same compound, the GI50 [2] was 1.51 µM, the TGI [2] was greater than 100 µM and the GI50 [3] was 2.9 µM. The TGI [3] was greater than 100 µM, the GI50 [4] was 5.31 µM and the TGI [4] was greater than 69.1 µM. For the same compound, the GI50 [10] was 0.355 µM, the TGI [10] was greater than 100 µM and the GI50 [6] was 2.54 µM. The TGI [6] was greater than 100 µM.
